From ChEMBL document CHEMBL1201861, “Genomics of Drug Sensitity in Cancer screening data, Wellcome Trust Sanger Institute”

Key:
Assay in all cases: cells
Assay type in all cases: functional, cell-based, Homo sapiens
KP-N-YN = details: Homo sapiens, KP-N-YN;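 further: growth inhibition of KP-N-YN cells, read out with a cell viability assay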
Description: SANGER: Inhibition of human KP-N-YN cell growth in a cell viability assay.

PC-3 = details: Homo sapiens, PC-3;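 further: cell viability assay measuring growth inhibition of PC-3 cells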
Description: SANGER: Inhibition of human PC-3 cell growth in a cell viability assay.

A-431 = details: Homo sapiens, A-431;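 further: growth inhibition of A-431 cells, determined with a cell viability read-out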
Description: SANGER: Inhibition of human A431 cell growth in a cell viability assay.

SW1783 = details: Homo sapiens, SW1783;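 further: cell growth inhibition measured with a viability assay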
Description: SANGER: Inhibition of human SW1783 cell growth in a cell viability assay.

HCC38 = details: Homo sapiens, HCC38;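 further: cell viability assay on the human HCC38 cell line, with IC50 marking the concentration that inhibits cell growth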
Description: SANGER: Inhibition of human HCC38 cell growth in a cell viability assay.

SW1990 = details: Homo sapiens, SW1990;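 further: cell growth inhibition determined with a viability assay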
Description: SANGER: Inhibition of human SW1990 cell growth in a cell viability assay.

HCC1569 = details: Homo sapiens, HCC1569;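 further: growth inhibition of human HCC1569 cells, read out with a cell viability assay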
Description: SANGER: Inhibition of human HCC1569 cell growth in a cell viability assay.

HCC1937 = details: Homo sapiens, HCC1937;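 further: growth inhibition measured with a cell viability read-out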
Description: SANGER: Inhibition of human HCC1937 cell growth in a cell viability assay.

LCLC-97TM1 = details: Homo sapiens, LCLC-97TM1;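 further: cell viability assay measuring growth inhibition of human LCLC-97TM1 cells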
Description: SANGER: Inhibition of human LCLC-97TM1 cell growth in a cell viability assay.

SN12C = details: Homo sapiens, SN12C;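 further: growth inhibition of human SN12C cells, measured by a cell viability assay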
Description: SANGER: Inhibition of human SN12C cell growth in a cell viability assay.

A 172 = details: Homo sapiens, A 172;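 further: growth inhibition of A172 cells, measured with a cell viability readout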
Description: SANGER: Inhibition of human A172 cell growth in a cell viability assay.

NCI-H2029 = details: Homo sapiens, NCI-H2029;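 further: Read-out is a viability assay on the cultured cells, and IC50 is the concentration that suppresses cell growth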
Description: SANGER: Inhibition of human NCI-H2029 cell growth in a cell viability assay.

SW780 = details: Homo sapiens, SW780;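 further: growth inhibition of the cells, read out with a cell viability assay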
Description: SANGER: Inhibition of human SW780 cell growth in a cell viability assay.

RD = details: Homo sapiens, RD
Description: SANGER: Inhibition of human RD cell growth in a cell viability assay.

SK-OV-3 = details: Homo sapiens, SK-OV-3;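 further: growth inhibition of SK-OV-3 human cells, read out with a cell viability assay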
Description: SANGER: Inhibition of human SK-OV-3 cell growth in a cell viability assay.

OVCAR-5 = details: Homo sapiens, OVCAR-5;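 further: growth inhibition of human OVCAR-5 cells, read out with a cell viability assay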
Description: SANGER: Inhibition of human OVCAR-5 cell growth in a cell viability assay.

SJRH30 = details: Homo sapiens, SJRH30;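 further: growth inhibition of human SJRH30 cells, read out with a cell viability assay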
Description: SANGER: Inhibition of human SJRH30 cell growth in a cell viability assay.

OC-314 = details: Homo sapiens, OC-314
Description: SANGER: Inhibition of human OC-314 cell growth in a cell viability assay.

BEN = details: Homo sapiens, BEN;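 further: growth inhibition of the BEN cell line, read out with a cell viability assay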
Description: SANGER: Inhibition of human BEN cell growth in a cell viability assay.

HN = details: Homo sapiens, HN
Description: SANGER: Inhibition of human HN cell growth in a cell viability assay.

HT-1376 = details: Homo sapiens, HT-1376
Description: SANGER: Inhibition of human HT-1376 cell growth in a cell viability assay.

T47D = details: Homo sapiens, T47D;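 further: growth inhibition of human T47D cells, measured with a cell viability assay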
Description: SANGER: Inhibition of human T47D cell growth in a cell viability assay.

SK-MES-1 = details: Homo sapiens, SK-MES-1;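 further: growth inhibition of human SK-MES-1 cells, read out with a cell viability assay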
Description: SANGER: Inhibition of human SK-MES-1 cell growth in a cell viability assay.

Daoy = details: Homo sapiens, Daoy;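 further: daoy cell growth inhibition, read out as cell viability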
Description: SANGER: Inhibition of human Daoy cell growth in a cell viability assay.

C-33-A = details: Homo sapiens, C-33-A;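 further: cell viability assay measuring growth inhibition of C-33-A cells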
Description: SANGER: Inhibition of human C-33-A cell growth in a cell viability assay.

KP-4 = details: Homo sapiens, KP-4;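 further: human KP-4 cells, with growth inhibition read out through a cell viability assay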
Description: SANGER: Inhibition of human KP-4 cell growth in a cell viability assay.

KYSE-510 = details: Homo sapiens, KYSE-510;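 further: cell viability readout used to measure how strongly growth of the cell line is suppressed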
Description: SANGER: Inhibition of human KYSE-510 cell growth in a cell viability assay.

HOP-92 = details: Homo sapiens, HOP-92;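 further: cell viability readout, with IC50 reflecting inhibition of HOP-92 cell growth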
Description: SANGER: Inhibition of human HOP-92 cell growth in a cell viability assay.

NCI-H2030 = details: Homo sapiens, NCI-H2030;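 further: growth inhibition of human NCI-H2030 cells, read out by a cell viability assay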
Description: SANGER: Inhibition of human NCI-H2030 cell growth in a cell viability assay.

S-117 = details: Homo sapiens, S-117
Description: SANGER: Inhibition of human S-117 cell growth in a cell viability assay.

NCI-H522 = details: Homo sapiens, NCI-H522;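 further: cell viability assay measuring growth inhibition of human NCI-H522 cells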
Description: SANGER: Inhibition of human NCI-H522 cell growth in a cell viability assay.

D-566MG = details: Homo sapiens, D-566MG
LN-405 = details: Homo sapiens, LN-405
Description: SANGER: Inhibition of human LN-405 cell growth in a cell viability assay.

HT-29 = details: Homo sapiens, HT-29;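 further: growth inhibition of human HT-29 cells, read out by a cell viability assay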
Description: SANGER: Inhibition of human HT-29 cell growth in a cell viability assay.

DOK = details: Homo sapiens, DOK;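 further: cell viability assay read-out, values reflect inhibition of cell growth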
Description: SANGER: Inhibition of human DOK cell growth in a cell viability assay.

SKG-IIIa = details: Homo sapiens, SKG-IIIa;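 further: cell growth inhibition, read out with a cell viability assay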
Description: SANGER: Inhibition of human SKG-IIIa cell growth in a cell viability assay.

SW13 = details: Homo sapiens, SW13;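 further: IC50 is inhibition of SW13 cell growth, read out with a cell viability assay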
Description: SANGER: Inhibition of human SW13 cell growth in a cell viability assay.

UO-31 = details: Homo sapiens, UO-31;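 further: cell viability assay measuring inhibition of cell growth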
Description: SANGER: Inhibition of human U031 cell growth in a cell viability assay.

23132-87 = details: Homo sapiens
Description: SANGER: Inhibition of human 23132-87 cell growth in a cell viability assay.

Structure (SMILES) | IC50 (KP-N-YN) | IC50 (PC-3) | IC50 (A-431) | IC50 (SW1783) | IC50 (HCC38) | IC50 (SW1990) | IC50 (HCC1569) | IC50 (HCC1937) | IC50 (LCLC-97TM1) | IC50 (SN12C) | IC50 (A 172) | IC50 (NCI-H2029) | IC50 (SW780) | IC50 (RD) | IC50 (SK-OV-3) | IC50 (OVCAR-5) | IC50 (SJRH30) | IC50 (OC-314) | IC50 (BEN) | IC50 (HN) | further results
COc1cc2c(Nc3ccc(NC(=O)c4ccccc4)cc3)ncnc2cc1OCCCN1CCOCC1 | > 4000 nM | > 4000 nM | > 4000 nM | > 4000 nM | > 4000 nM | > 4000 nM | > 4000 nM | > 4000 nM | 2180 nM | > 4000 nM | 984 nM | > 4000 nM | 3060 nM | > 4000 nM | > 4000 nM | > 4000 nM | > 4000 nM | > 4000 nM | > 4000 nM | 1930 nM | IC50 (HT-1376): > 4000 nM; IC50 (T47D): > 4000 nM; IC50 (SK-MES-1): > 4000 nM; IC50 (Daoy): > 4000 nM; IC50 (C-33-A): > 4000 nM; IC50 (KP-4): > 4000 nM; IC50 (KYSE-510): 3640 nM; IC50 (HOP-92): > 4000 nM; IC50 (NCI-H2030): > 4000 nM; IC50 (S-117): > 4000 nM; IC50 (NCI-H522): > 4000 nM; IC50 (D-566MG): 1790 nM; IC50 (LN-405): > 4000 nM; IC50 (HT-29): > 4000 nM; IC50 (DOK): > 4000 nM; IC50 (SKG-IIIa): > 4000 nM; IC50 (SW13): > 4000 nM; IC50 (UO-31): > 4000 nM
CC(C)c1ccccc1Cc1cc(C(=O)Nc2ccc(S(=O)(=O)c3ccccc3C(C)(C)C)cc2)c(O)c(O)c1O | 15900 nM | 715 nM | 1470 nM | 213 nM | 676 nM | 1670 nM | 4880 nM | 1640 nM | 917 nM | 1110 nM | 794 nM | 14400 nM | 5800 nM | 960 nM | 527 nM | 576 nM | 137 nM | 210 nM | 7410 nM | 231 nM | IC50 (HT-1376): 1900 nM; IC50 (T47D): 691 nM; IC50 (SK-MES-1): 1040 nM; IC50 (Daoy): 141 nM; IC50 (C-33-A): 109 nM; IC50 (KP-4): 455 nM; IC50 (KYSE-510): 222 nM; IC50 (HOP-92): 358 nM; IC50 (NCI-H2030): 2810 nM; IC50 (S-117): 213 nM; IC50 (NCI-H522): 2080 nM; IC50 (D-566MG): 116 nM; IC50 (LN-405): 1580 nM; IC50 (HT-29): 1460 nM; IC50 (DOK): 1340 nM; IC50 (SKG-IIIa): 576 nM; IC50 (SW13): 204 nM; IC50 (UO-31): 184 nM; IC50 (23132-87): 324 nM
CC(C)CCN1c2nc(Nc3cc(F)c(O)c(F)c3)ncc2N(C)C(=O)C1C (configuration not stated) | > 5000 nM | 4950 nM | 4140 nM | > 5000 nM | > 5000 nM | > 5000 nM | > 5000 nM | > 5000 nM | 2600 nM | > 5000 nM | 517 nM | 1970 nM | > 5000 nM | 3430 nM | > 5000 nM | > 5000 nM | > 5000 nM | > 5000 nM | > 5000 nM | 1610 nM | IC50 (HT-1376): 4230 nM; IC50 (T47D): > 5000 nM; IC50 (SK-MES-1): 3730 nM; IC50 (Daoy): 988 nM; IC50 (C-33-A): > 5000 nM; IC50 (KP-4): > 5000 nM; IC50 (KYSE-510): 4260 nM; IC50 (HOP-92): > 5000 nM; IC50 (NCI-H2030): > 5000 nM; IC50 (S-117): > 5000 nM; IC50 (NCI-H522): > 5000 nM; IC50 (D-566MG): 2910 nM; IC50 (LN-405): > 5000 nM; IC50 (HT-29): > 5000 nM; IC50 (DOK): 3770 nM; IC50 (SKG-IIIa): > 5000 nM; IC50 (SW13): > 5000 nM; IC50 (UO-31): > 5000 nM; IC50 (23132-87): > 5000 nM
CC1(C)CNc2cc(NC(=O)c3cccnc3NCc3ccncc3)ccc21 [MOTESANIB] | > 2000 nM | > 2000 nM | > 2000 nM | > 2000 nM | > 2000 nM | > 2000 nM | > 2000 nM | > 2000 nM | > 2000 nM | > 2000 nM | > 2000 nM | > 2000 nM | > 2000 nM | > 2000 nM | > 2000 nM | > 2000 nM | > 2000 nM | > 2000 nM | > 2000 nM | > 2000 nM | IC50 (HT-1376): > 2000 nM; IC50 (T47D): > 2000 nM; IC50 (SK-MES-1): > 2000 nM; IC50 (Daoy): > 2000 nM; IC50 (C-33-A): > 2000 nM; IC50 (KP-4): > 2000 nM; IC50 (KYSE-510): > 2000 nM; IC50 (HOP-92): > 2000 nM; IC50 (NCI-H2030): > 2000 nM; IC50 (S-117): > 2000 nM; IC50 (NCI-H522): > 2000 nM; IC50 (D-566MG): > 2000 nM; IC50 (LN-405): > 2000 nM; IC50 (HT-29): > 2000 nM; IC50 (DOK): > 2000 nM; IC50 (SKG-IIIa): > 2000 nM; IC50 (SW13): > 2000 nM; IC50 (UO-31): > 2000 nM
CCN(CC)CCCCNc1ncc2cc(-c3cc(OC)cc(OC)c3)c(NC(=O)NC(C)(C)C)nc2n1 [PD-173074] | > 2000 nM | > 2000 nM | > 2000 nM | > 2000 nM | > 2000 nM | > 2000 nM | > 2000 nM | > 2000 nM | > 2000 nM | > 2000 nM | 1700 nM | > 2000 nM | > 2000 nM | > 2000 nM | > 2000 nM | > 2000 nM | > 2000 nM | > 2000 nM | > 2000 nM | > 2000 nM | IC50 (HT-1376): > 2000 nM; IC50 (T47D): > 2000 nM; IC50 (SK-MES-1): > 2000 nM; IC50 (Daoy): > 2000 nM; IC50 (C-33-A): > 2000 nM; IC50 (KP-4): > 2000 nM; IC50 (KYSE-510): > 2000 nM; IC50 (HOP-92): > 2000 nM; IC50 (NCI-H2030): > 2000 nM; IC50 (S-117): > 2000 nM; IC50 (NCI-H522): > 2000 nM; IC50 (D-566MG): > 2000 nM; IC50 (LN-405): > 2000 nM; IC50 (HT-29): > 2000 nM; IC50 (DOK): > 2000 nM; IC50 (SKG-IIIa): > 2000 nM; IC50 (SW13): > 2000 nM; IC50 (UO-31): > 2000 nM
